Laboratory results from ChEMBL document CHEMBL3044730, “Synthesis, antimycobacterial, antiviral, antimicrobial activities, and QSAR studies of nicotinic acid benzylidene hydrazide derivatives” (Med Chem Res, 2012).
Converted amounts (≈) assume the structure as drawn.

How the values were obtained:
Human alphaherpesvirus 1 [1] = assay: Antiviral activity against Human herpesvirus 1 strain KOS infected in human HEL cells assessed as inhibition of virus-induced cytopathicity by microscopy by microscopy; type: functional, organism-based; settings: Human alphaherpesvirus 1, KOS
Punta Toro virus = assay: Antiviral activity against Punta Toro virus infected Vero cells assessed as inhibition of virus-induced cytopathicity; type: functional, organism-based
Human alphaherpesvirus 2 = assay: Antiviral activity against Human herpesvirus 2 strain G infected human HEL cells assessed as inhibition of virus-induced cytopathicity by microscopy; type: functional, organism-based; settings: Human alphaherpesvirus 2, strain G
[2] = Cytotoxicity against Chlorocebus aethiops (African green monkey) Vero cells assessed as alteration in cell morphology by microscopy; type: cell-based; settings: chlorocebus sabaeus
Coxsackievirus B4 [3] = assay: Antiviral activity against Human coxsackievirus B4 infected human HeLa cells assessed as inhibition of virus-induced cytopathicity by microscopy; type: functional, organism-based; settings: Enterovirus B
Human respirovirus 3 = assay: Antiviral activity against Human parainfluenza virus 3 infected Vero cells assessed as inhibition of virus-induced cytopathicity by microscopy; type: functional, organism-based; settings: Human respirovirus 3, Vero
[4] = tested on: Human immunodeficiency virus 1; assay: Antiviral activity against Human immunodeficiency virus 1 IIIB infected MT4 cells assessed as inhibition of virus-induced cytopathic effect after 4 days by MTT assay; type: functional, organism-based; settings: MT4, 96 h
[5] = tested on: Respiratory syncytial virus; assay: Antiviral activity against Respiratory syncytial virus infected human HeLa cells assessed as inhibition of virus-induced cytopathicity by microscopy; type: functional, organism-based
Human alphaherpesvirus 1 [6] = assay: Antiviral activity against TK(-) aciclovir-resistant Human herpesvirus 1 strain KOS infected in human HEL cells assessed as inhibition of virus-induced cytopathicity; type: functional, organism-based; settings: Human alphaherpesvirus 1, KOS
Candida albicans [7] = assay: Antimicrobial activity against Candida albicans after 2 days by serial dilution method; type: functional; design: unit not given here
[8] = Cytotoxicity against Homo sapiens (human) MT4 cells after 4 days by MTT assay; type: cell-based
Candida albicans [9] = assay: Antimicrobial activity against Candida albicans after 7 days by serial dilution method; type: functional; design: unit not given here
Staphylococcus aureus = assay: Antimicrobial activity against Staphylococcus aureus after 24 hr by serial dilution method; type: functional; design: unit not given here
Coxsackievirus B4 [10] = assay: Antiviral activity against Human coxsackievirus B4 infected Vero cells assessed as inhibition of virus-induced cytopathicity; type: functional, organism-based; settings: Enterovirus B
[11] = Cytotoxicity against Homo sapiens (human) HEL cells assessed as alteration in cell morphology by microscopy; type: cell-based
Escherichia coli = assay: Antimicrobial activity against Escherichia coli after 24 hr by serial dilution method; type: functional; design: unit not given here
Bacillus subtilis = assay: Antimicrobial activity against Bacillus subtilis after 24 hr by serial dilution method; type: functional; design: unit not given here
[12] = tested on: Vesicular stomatitis virus; assay: Antiviral activity against Vesicular stomatitis virus infected human HeLa cells assessed as inhibition of virus-induced cytopathicity by microscopy; type: functional, organism-based
[13] = tested on: Human herpesvirus 3 strain Oka vaccine; assay: Antiviral activity against Human herpesvirus 3 strain Oka vaccine OKA 07-1 (Varicella zoster virus) infected in human HEL cells assessed as inhibition of virus-induced cytopathicity; type: functional, organism-based; settings: Human alphaherpesvirus 3, OKA 07-1, HEL
Sindbis virus = assay: Antiviral activity against Sindbis virus infected Vero cells assessed as inhibition of virus-induced cytopathicity; type: functional, organism-based
[14] = tested on: Human immunodeficiency virus 2; assay: Antiviral activity against Human immunodeficiency virus type 2 (ISOLATE ROD) infected MT4 cells assessed as inhibition of virus-induced cytopathic effect after 4 days by MTT assay; type: functional, organism-based; settings: Human immunodeficiency virus 2, ISOLATE ROD, MT4, 96 h
[15] = tested on: Human herpesvirus 5 strain AD169; assay: Antiviral activity against Human herpesvirus 5 strain AD169 Davis infected human HEL cells assessed as inhibition of virus-induced cytopathicity by microscopy; type: functional, organism-based; settings: Human betaherpesvirus 5, Davis
Vaccinia virus = assay: Antiviral activity against Vaccinia virus infected human HEL cells assessed as inhibition of virus-induced cytopathicity by microscopy; type: functional, organism-based; settings: Orthopoxvirus vaccinia
[16] = Cytotoxicity against Homo sapiens (human) HeLa cells assessed as alteration in cell morphology by microscopy; type: cell-based
[17] = tested on: Mycobacterium tuberculosis; assay: Antimicrobial activity against Mycobacterium tuberculosis by agar dilution method; type: functional
[18] = tested on: Mammalian orthoreovirus 1; assay: Antiviral activity against Mammalian orthoreovirus 1 infected Vero cells assessed as inhibition of virus-induced cytopathicity by microscopy; type: functional, organism-based; settings: Mammalian orthoreovirus 1, Vero

Row | Compound | EC50 (Human alphaherpesvirus 1 [1]) [µg/mL] | EC50 (Punta Toro virus) [µg/mL] | EC50 (Human alphaherpesvirus 2) [µg/mL] | MCC [2] [µg/mL] | EC50 (Coxsackievirus B4 [3]) [µg/mL] | EC50 (Human respirovirus 3) [µg/mL] | EC50 [4] [µg/mL] | EC50 [5] [µg/mL] | EC50 (Human alphaherpesvirus 1 [6]) [µg/mL] | -logMIC (Candida albicans [7]) | CC50 at 96 h [8] [µg/mL] | -logMIC (Candida albicans [9]) | -logMIC (Staphylococcus aureus) | EC50 (Coxsackievirus B4 [10]) [µg/mL] | CC50 [11] [µg/mL] | MCC [11] [µg/mL] | -logMIC (Escherichia coli) | -logMIC (Bacillus subtilis) | EC50 [14] [µg/mL] | MIC [17] [µg/mL] | other results
1 | COc1ccc(/C=N/NC(=O)c2cccnc2)cc1 | > 100 | > 100 | > 100 | > 100 | > 100 | > 100 | > 99 | > 100 | > 100 | 1.31 | 99 (≈ 388 µM) | 1.61 | 1.31 | > 100 | > 100 | > 100 | 1.31 | 1.31 | > 99 | > 25 | EC50 [12]: > 100 µg/mL; EC50 [13]: > 100 µg/mL; EC50 (Sindbis virus): > 100 µg/mL; EC50 [15]: > 100 µg/mL; EC50 (Vaccinia virus): > 100 µg/mL; MCC [16]: > 100 µg/mL; EC50 [18]: > 100 µg/mL
2 | O=C(N/N=C/c1cccc(O)c1)c1cccnc1 | > 100 | > 100 | > 100 | > 100 | > 100 | > 100 | > 98 | > 100 | > 100 | 1.28 | 98 (≈ 406 µM) | 1.29 | 1.29 | > 100 | > 100 | > 100 | 1.29 | 1.29 | > 98 | > 25 | EC50 [12]: > 100 µg/mL; EC50 [13]: > 100 µg/mL; EC50 (Sindbis virus): > 100 µg/mL; EC50 [15]: > 100 µg/mL; EC50 (Vaccinia virus): > 100 µg/mL; MCC [16]: > 100 µg/mL; EC50 [18]: > 100 µg/mL
3 | COc1ccc(OC)c(/C=N/NC(=O)c2cccnc2)c1 | > 20 | > 100 | > 20 | > 100 | > 100 | > 100 | > 13 | > 100 | > 20 | 1.36 | 13 (≈ 45.6 µM) | 1.96 | 1.36 | > 100 | 12 (≈ 42.1 µM) | 100 | 1.96 | 1.36 | > 13 | > 25 | EC50 [12]: > 100 µg/mL; EC50 [13]: > 20 µg/mL; EC50 (Sindbis virus): > 100 µg/mL; EC50 [15]: > 20 µg/mL; EC50 (Vaccinia virus): > 20 µg/mL; MCC [16]: > 100 µg/mL; EC50 [18]: > 100 µg/mL
4 | COc1cc(/C=N/NC(=O)c2cccnc2)ccc1O | > 20 | > 100 | > 20 | > 100 | > 100 | > 100 | > 93 | > 100 | > 20 | 1.34 | ≥ 93 | 1.64 | 0.43 | > 100 | > 100 | 100 | 0.43 | 0.43 | > 93 | > 25 | EC50 [12]: > 100 µg/mL; EC50 [13]: > 100 µg/mL; EC50 (Sindbis virus): > 100 µg/mL; EC50 [15]: > 20 µg/mL; EC50 (Vaccinia virus): > 20 µg/mL; MCC [16]: > 100 µg/mL; EC50 [18]: > 100 µg/mL
5 | CCOc1cc(/C=N/NC(=O)c2cccnc2)ccc1O | > 20 | > 100 | > 20 | > 100 | > 100 | > 100 | > 117 | > 100 | > 20 | 1.36 | ≥ 117 | 1.96 | 1.36 | > 100 | 63 (≈ 221 µM) | 100 | 1.06 | 1.36 | > 117 | > 25 | EC50 [12]: > 100 µg/mL; EC50 [13]: > 70 µg/mL; EC50 (Sindbis virus): > 100 µg/mL; EC50 [15]: > 20 µg/mL; EC50 (Vaccinia virus): > 20 µg/mL; MCC [16]: > 100 µg/mL; EC50 [18]: > 100 µg/mL
6 | O=C(N/N=C/c1ccc(O)cc1)c1cccnc1 | > 100 | > 100 | > 100 | > 100 | > 100 | > 100 | > 104 | > 100 | > 100 | 1.28 | 104 (≈ 431 µM) | 1.59 | 1.29 | > 100 | 91 (≈ 377 µM) | > 100 | 1.29 | 1.29 | > 104 | > 25 | EC50 [12]: > 100 µg/mL; EC50 [13]: 54 µg/mL (≈ 224 µM); EC50 (Sindbis virus): > 100 µg/mL; EC50 [15]: > 100 µg/mL; EC50 (Vaccinia virus): > 100 µg/mL; MCC [16]: > 100 µg/mL; EC50 [18]: > 100 µg/mL
7 | O=C(O)c1cn(C2CC2)c2cc(N3CCNCC3)c(F)cc2c1=O [CIPROFLOXACIN] |  |  |  |  |  |  |  |  |  |  |  |  |  |  |  |  |  |  |  | 3.13 (≈ 9.45 µM) | 
8 | CC[C@@H](CO)NCCN[C@@H](CC)CO [ETHAMBUTOL] |  |  |  |  |  |  |  |  |  |  |  |  |  |  |  |  |  |  |  | 1.56 (≈ 7.64 µM) | 
9 | OC(Cn1cncn1)(Cn1cncn1)c1ccc(F)cc1F [FLUCONAZOLE] |  |  |  |  |  |  |  |  |  | 2.64 |  | 2.64 |  |  |  |  |  |  |  |  | 
10 | NNC(=O)c1ccncc1 [ISONIAZID] |  |  |  |  |  |  |  |  |  |  |  |  |  |  |  |  |  |  |  | 0.1 (≈ 0.729 µM) | 
11 | Cc1ccnc2c1NC(=O)c1cccnc1N2C1CC1 [NEVIRAPINE] |  |  |  |  |  |  | 0.05 (≈ 0.188 µM) |  |  |  | > 4 |  |  |  |  |  |  |  | 4 (≈ 15 µM) |  | 
12 | NNC(=O)c1cccnc1 [NICOTINIC ACID HYDRAZIDE] |  |  |  |  |  |  |  |  |  | 1.04 |  | 1.04 | 0.74 |  |  |  | 0.74 | 1.04 |  |  | 
13 | CCn1cc(C(=O)O)c(=O)c2cc(F)c(N3CCNCC3)cc21 [NORFLOXACIN] |  |  |  |  |  |  |  |  |  |  |  |  | 2.61 |  |  |  | 2.61 | 2.61 |  |  | 
14 | Cc1cn([C@H]2C[C@H](N=[N+]=[N-])[C@@H](CO)O2)c(=O)[nH]c1=O [ZIDOVUDINE] |  |  |  |  |  |  |  |  |  |  | > 2.5 |  |  |  |  |  |  |  | 0.0009 (≈ 0.00337 µM) |  | 
